In patent US9532970B2, “Compositions for anti-inflammatory, antioxidant effects and improved respiratory function by specific histone deacetylase inhibition” (priority 2014, dated 2017):
Read-outs that look alike come from different tables or passages of the source.

Tests used:
H9c2 cells = details: pre-treated with 10, 15 and 30 μM for 24 hours prior to 1 μM doxorubicin
HDAC-6 [1] = target: T1, HDAC-6 (Homo sapiens, UniProt Q9UBN7); experiment: biochemical
T1 sequence (Q9UBN7 1-1215): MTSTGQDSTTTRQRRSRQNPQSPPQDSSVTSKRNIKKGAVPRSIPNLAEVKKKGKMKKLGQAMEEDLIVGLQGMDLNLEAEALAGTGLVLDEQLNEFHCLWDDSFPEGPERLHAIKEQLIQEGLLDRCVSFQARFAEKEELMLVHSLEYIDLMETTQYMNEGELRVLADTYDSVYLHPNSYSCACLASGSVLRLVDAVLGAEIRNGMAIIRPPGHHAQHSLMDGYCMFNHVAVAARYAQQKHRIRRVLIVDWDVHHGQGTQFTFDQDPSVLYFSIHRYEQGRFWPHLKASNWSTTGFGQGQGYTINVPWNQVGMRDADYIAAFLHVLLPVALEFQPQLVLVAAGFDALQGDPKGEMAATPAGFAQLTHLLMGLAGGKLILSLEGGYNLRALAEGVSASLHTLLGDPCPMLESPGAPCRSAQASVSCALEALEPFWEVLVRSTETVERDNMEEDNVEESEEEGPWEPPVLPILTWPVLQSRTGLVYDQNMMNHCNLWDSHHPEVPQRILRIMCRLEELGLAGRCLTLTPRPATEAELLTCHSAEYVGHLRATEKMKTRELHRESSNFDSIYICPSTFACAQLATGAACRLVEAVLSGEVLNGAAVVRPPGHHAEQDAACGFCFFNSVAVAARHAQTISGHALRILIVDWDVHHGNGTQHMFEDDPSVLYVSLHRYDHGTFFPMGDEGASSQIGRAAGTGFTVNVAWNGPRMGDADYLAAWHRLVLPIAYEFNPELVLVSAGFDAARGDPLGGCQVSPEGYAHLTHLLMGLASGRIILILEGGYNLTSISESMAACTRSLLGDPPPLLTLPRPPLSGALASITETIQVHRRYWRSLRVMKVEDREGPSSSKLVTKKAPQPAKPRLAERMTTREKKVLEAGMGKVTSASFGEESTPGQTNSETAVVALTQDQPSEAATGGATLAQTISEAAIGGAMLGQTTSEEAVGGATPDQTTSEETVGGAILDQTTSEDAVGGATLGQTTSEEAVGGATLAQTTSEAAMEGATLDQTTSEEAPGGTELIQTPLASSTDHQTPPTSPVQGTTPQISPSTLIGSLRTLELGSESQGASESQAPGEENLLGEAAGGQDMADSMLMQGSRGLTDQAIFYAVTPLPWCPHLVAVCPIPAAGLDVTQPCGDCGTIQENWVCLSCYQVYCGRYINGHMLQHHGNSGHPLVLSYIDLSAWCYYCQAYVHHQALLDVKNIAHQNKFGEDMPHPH

HDAC-3 [2] = target: T2, HDAC-3 (Homo sapiens, UniProt O15379); experiment: biochemical
HDAC8 [3] = target: T3, HDAC8 (Homo sapiens, UniProt Q9BY41); experiment: biochemical
Target sequence in this assay (Q9BY41 whole entry, species assumed): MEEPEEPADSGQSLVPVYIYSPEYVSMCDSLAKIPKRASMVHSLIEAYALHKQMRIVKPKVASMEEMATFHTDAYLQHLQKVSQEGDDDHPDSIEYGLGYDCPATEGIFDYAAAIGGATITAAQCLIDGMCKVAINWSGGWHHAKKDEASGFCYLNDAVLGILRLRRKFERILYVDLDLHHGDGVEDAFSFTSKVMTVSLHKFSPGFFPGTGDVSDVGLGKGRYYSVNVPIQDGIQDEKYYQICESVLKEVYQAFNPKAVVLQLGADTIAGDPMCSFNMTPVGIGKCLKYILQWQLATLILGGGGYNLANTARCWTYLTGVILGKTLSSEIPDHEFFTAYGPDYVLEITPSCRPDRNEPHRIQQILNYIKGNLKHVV

HDAC-6 [4] = target: T1, HDAC-6
HDAC-7 = HDAC-7 (Homo sapiens, UniProt Q8WUI4); experiment: Binding to metal dependent histone deacetylase enzymes (epigenetic assay services)
HDAC8 [5] = target: T3, HDAC8; details: FIG. 2
Target sequence in this assay (Q9BY41 whole entry): as the sequence (Q9BY41 whole entry, species assumed) above

HDAC-3 [6] = target: T2, HDAC-3
Horse PBMC = details: for Log2 Fold Change: LSF vs control
[7] = tested on: naphthalene-induced airway epithelial damage; details: 5 mg/kg ip
HDAC8 [8] = target: T3, HDAC8
Target sequence in this assay (Q9BY41 whole entry, species assumed): as above

[9] = tested on: ovalbumin (OVA)-induced AAD
[10] = more subtle than Trichostatin A
[11] = three control vs three LSF treated samples
[12] = 5 mg/kg intraperitoneally following each OVA nebulization, compared to ovalbumin-sensitized mice

T2 sequence (O15379 whole entry, species assumed): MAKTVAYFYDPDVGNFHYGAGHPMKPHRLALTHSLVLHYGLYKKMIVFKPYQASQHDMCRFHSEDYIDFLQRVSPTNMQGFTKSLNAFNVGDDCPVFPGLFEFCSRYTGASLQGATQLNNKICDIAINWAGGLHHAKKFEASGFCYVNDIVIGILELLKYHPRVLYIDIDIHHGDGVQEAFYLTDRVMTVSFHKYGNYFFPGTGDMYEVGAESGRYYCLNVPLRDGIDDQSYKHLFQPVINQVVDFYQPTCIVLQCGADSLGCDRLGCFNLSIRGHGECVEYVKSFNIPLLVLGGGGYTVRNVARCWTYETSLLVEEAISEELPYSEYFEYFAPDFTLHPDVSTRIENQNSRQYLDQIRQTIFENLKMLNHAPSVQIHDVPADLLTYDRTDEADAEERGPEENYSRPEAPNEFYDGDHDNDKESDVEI
T2 sequence (Q9Y618 395-489 partner limits assumed, species assumed): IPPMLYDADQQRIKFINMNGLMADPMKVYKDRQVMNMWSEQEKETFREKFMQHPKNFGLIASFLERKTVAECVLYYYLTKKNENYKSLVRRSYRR
Chain of HDAC-7 (Q8WUI4 whole entry): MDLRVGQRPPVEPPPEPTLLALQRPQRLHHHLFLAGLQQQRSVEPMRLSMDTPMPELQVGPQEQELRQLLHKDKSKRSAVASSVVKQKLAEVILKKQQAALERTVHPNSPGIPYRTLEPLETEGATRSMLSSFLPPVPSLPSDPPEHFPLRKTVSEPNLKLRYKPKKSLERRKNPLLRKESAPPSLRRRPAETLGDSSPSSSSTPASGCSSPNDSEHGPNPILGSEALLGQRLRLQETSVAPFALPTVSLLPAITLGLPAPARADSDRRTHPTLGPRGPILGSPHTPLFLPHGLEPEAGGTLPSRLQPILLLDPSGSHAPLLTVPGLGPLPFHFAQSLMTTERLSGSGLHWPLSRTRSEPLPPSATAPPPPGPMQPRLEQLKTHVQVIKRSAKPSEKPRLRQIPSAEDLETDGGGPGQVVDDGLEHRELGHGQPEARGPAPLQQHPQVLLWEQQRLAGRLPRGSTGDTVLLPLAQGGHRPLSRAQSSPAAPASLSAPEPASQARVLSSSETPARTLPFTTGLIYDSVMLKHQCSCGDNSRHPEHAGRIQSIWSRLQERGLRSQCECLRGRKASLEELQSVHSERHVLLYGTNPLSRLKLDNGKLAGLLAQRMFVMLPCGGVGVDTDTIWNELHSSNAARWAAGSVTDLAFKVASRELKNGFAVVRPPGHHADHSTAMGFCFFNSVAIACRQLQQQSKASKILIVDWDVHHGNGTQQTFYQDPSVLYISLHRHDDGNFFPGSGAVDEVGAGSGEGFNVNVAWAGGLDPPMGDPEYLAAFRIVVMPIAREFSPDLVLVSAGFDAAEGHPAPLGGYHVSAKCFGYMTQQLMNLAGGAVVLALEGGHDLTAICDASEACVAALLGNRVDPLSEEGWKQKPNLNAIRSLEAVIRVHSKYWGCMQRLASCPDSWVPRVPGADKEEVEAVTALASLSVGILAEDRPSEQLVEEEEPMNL

## C[S@@+]([O-])CCCCN=C=S [LSF, (R)-1-Isothiocyanato-4-(methylsulfinyl)butane]
H9c2 cells
  doxorubicin-induced accumulation of γH2AX foci: attenuates
HDAC-6 [1]
  IC50: 1.02 mM
HDAC-3 [2]
  IC50: 20.5 mM
HDAC8 [3]
  IC50: 0.0827 mM
HDAC-6 [4]; HDAC-6
  HILLSLOPE: −0.88
HDAC-6 [4]; [10]
  binding to HDAC 6 (in words): specific binding
HDAC-7; HDAC-7
  HILLSLOPE: −0.41
  IC50: 5.81 mM
HDAC-7; [10]
  binding to HDAC 7 (in words): specific binding
HDAC8 [5]
  inhibition of the enzymatic activity of HDAC8: inhibits
HDAC8 [5]; HDAC1 and HDAC8 inhibitor Screening Assay Kits
  specificity of inhibition, HDAC8 compared to HDAC1: specificity of L-sulforaphane for HDAC8 compared to HDAC1
HDAC-3 [6]; HDAC-3
  HILLSLOPE: −0.20
HDAC-3 [6]; [10]
  binding to HDAC 3 (in words): specific binding
Horse PBMC; gene ABCA1
  Log2 Fold Change: −4.37
Horse PBMC; gene APOBEC3Z1B
  Log2 Fold Change: −3.67
Horse PBMC; gene ASPH
  Log2 Fold Change: 1.93
Horse PBMC; gene C2
  Log2 Fold Change: −2.13
Horse PBMC; gene CD180
  Log2 Fold Change: −2.97
Horse PBMC; gene CMKLR1
  Log2 Fold Change: −3.79
Horse PBMC; gene CSF3R
  Log2 Fold Change: −3.76
Horse PBMC; gene CXCL9
  Log2 Fold Change: −2.55
Horse PBMC; gene CYP1B1
  Log2 Fold Change: −3.83
Horse PBMC; gene DENND2A
  Log2 Fold Change: 3.67
Horse PBMC; gene FRMPD4
  Log2 Fold Change: −3.80
Horse PBMC; gene FTL
  Log2 Fold Change: 1.51
Horse PBMC; gene GSAP
  Log2 Fold Change: 2.00
Horse PBMC; gene IL8
  Log2 Fold Change: 3.54
Horse PBMC; gene KCNJ2
  Log2 Fold Change: 2.06
Horse PBMC; gene MAFB
  Log2 Fold Change: −2.66
Horse PBMC; gene ME1
  Log2 Fold Change: 1.47
Horse PBMC; gene MN-SOD
  Log2 Fold Change: 1.93
Horse PBMC; gene NR1H3
  Log2 Fold Change: −2.56
Horse PBMC; gene OSGIN2
  Log2 Fold Change: 1.88
Horse PBMC; gene PLEKHA4
  Log2 Fold Change: −3.60
Horse PBMC; gene PTPN12
  Log2 Fold Change: 1.43
Horse PBMC; gene RIPK2
  Log2 Fold Change: 2.01
Horse PBMC; gene RNASE6
  Log2 Fold Change: −2.45
Horse PBMC; gene SERPINB2
  Log2 Fold Change: −4.65
Horse PBMC; gene SLAMF8
  Log2 Fold Change: −2.75
Horse PBMC; gene SLC7A8
  Log2 Fold Change: −3.35
Horse PBMC; gene SLC7A11
  Log2 Fold Change: 2.34
Horse PBMC; gene SLC37A2
  Log2 Fold Change: −2.72
Horse PBMC; gene SORCS1
  Log2 Fold Change: −2.71
Horse PBMC; gene STAC2
  Log2 Fold Change: 3.38
Horse PBMC; gene STXBP5
  Log2 Fold Change: 1.57
Horse PBMC; gene TGM2
  Log2 Fold Change: −3.99
Horse PBMC; gene TNFSF15
  Log2 Fold Change: 2.40
Horse PBMC; gene TNS3
  Log2 Fold Change: −3.09
Horse PBMC; gene TUBA4A
  Log2 Fold Change: 1.30
Horse PBMC; gene TXN
  Log2 Fold Change: 1.87
Horse PBMC; gene TXNRD1
  Log2 Fold Change: 2.13
Horse PBMC; gene WDR59
  Log2 Fold Change: 2.19
Horse PBMC; gene ZFAND2A
  Log2 Fold Change: 2.22
Horse PBMC; [11]
  differentially expressed genes (number): 5951
  down-regulated genes (number): 3012
  up-regulated genes (number): 2939
[7]; 24 hours post-naphthalene, level analogous to dexamethasone 1 mg/kg
  epithelial denudation: reduces
[7]; 72 hours post-naphthalene, efficacy similar to dexamethasone
  lamina reticularis thickness: reduces
HDAC8 [8]; FIG. 1
  binding to HDAC8 relative to the other HDACs: most pronounced
HDAC8 [8]; HDAC-8
  HILLSLOPE: −0.88
HDAC8 [8]; [10]
  binding to HDAC 8 (in words): specific binding
[9]; [12]
  airway wall thickness: reductions
  goblet cell hyperplasia: reductions
  inflammation: reductions
[9]; OVA-LSF 5 mg/kg, strong staining in OVA-VEH
  Annexin V staining (apoptosis) in lung tissue: Weak
